# From patent US11279733B2, “Peptide antibiotics” (priority 2017, dated 2022)
# Like-named read-outs stand apart in the source and are kept apart here. Positions of bridges follow the written chain, without caps; N, C: chain ends. Non-standard residues stand in square brackets, D forms with d. Residues, ends and D or L forms follow the SMILES beside them. *: point of attachment. dPhe(4-CN) = N#Cc1ccc(C[C@@H](N)C(=O)O)cc1; Benzoyl(4-Ph) = O=C(c1ccc(-c2ccccc2)cc1)*; Decanoyl(3R-OH) = CCCCCCC[C@@H](O)CC(=O)*; Ala(cPr) = N[C@@H](CC1CC1)C(=O)O; X4 = CCCCCOc1ccc(C(=O)*)cc1; dOrn = NCCC[C@@H](N)C(=O)O; dDab = NCC[C@@H](N)C(=O)O; Dab = NCC[C@H](N)C(=O)O
# Columns and labels:
# [1] = system: S. aureus ATCC 25923, MSSA; details: ATCC 25923
# Procedure, shortened: (§1)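 Mid-log cultures grown in Mueller Hinton broth at 37° C were tested by 2-fold broth microdilution at 5×10^5 CFU/mL final. Compounds were dissolved in water and tested over a final range of 32 to 0.015 μg/mL.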
# K. pneumoniae ATCC 13883 = details: ATCC 13883
# Procedure, shortened: as §1
# [2] = system: P. aeruginosa GN_105, PmxR; details: GN 105, PmxR
# Procedure, shortened: as §1
# A. baumannii ATCC 19606 = details: ATCC 19606
# Procedure, shortened: as §1
# [3] = system: K. pneumoniae GN_106, PmxR; details: GN 106, PmxR
# Procedure, shortened: as §1
# P. aeruginosa ATCC 27853 = details: ATCC 27853
# Procedure, shortened: as §1
# A. baumannii GN_093 PmxR = details: GN 093 PmxR
# Procedure, shortened: as §1
# [4] = system: K. pneumoniae ATCC 700603, MDR; details: ATCC 700603
# Procedure, shortened: as §1
# [5] = system: K. pneumoniae ATCC BAA-2146, NDM-1 pos; details: ATCC BAA-2146
# Procedure, shortened: as §1
# E. coli ATCC 25922 = details: ATCC 25922
# Procedure, shortened: as §1
# [6] = system: P. aeruginosa GN_043, PmxR
# Procedure, shortened: as §1
# [7] = system: K. pneumoniae GN_102 PmxR; details: GN 102 PmxR
# Procedure, shortened: as §1
# in vitro = details: human
# Procedure, shortened: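 Cells (4000/well, pre-attached 24 h) then received 5 μM resazurin for 2 h, with fluorescence measured at ex 560/em 590.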
SMILES,"MIC S. aureus ATCC 25923, MSSA [1] [µg/mL]",MIC K. pneumoniae ATCC 13883 (K. pneumoniae ATCC 13883) [µg/mL],"MIC P. aeruginosa GN_105, PmxR [2] [µg/mL]",MIC A. baumannii ATCC 19606 (A. baumannii ATCC 19606) [µg/mL],"MIC K. pneumoniae GN_106, PmxR [3] [µg/mL]",MIC P. aeruginosa ATCC 27853 (P. aeruginosa ATCC 27853) [µg/mL],MIC A. baumannii GN_093 PmxR (A. baumannii GN_093 PmxR) [µg/mL],"MIC K. pneumoniae ATCC 700603, MDR [4] [µg/mL]","MIC K. pneumoniae ATCC BAA-2146, NDM-1 pos [5] [µg/mL]",MIC E. coli ATCC 25922 (E. coli ATCC 25922) [µg/mL],"MIC P. aeruginosa GN_043, PmxR ([6]; P. aeruginosa GN_043, PmxR) [µg/mL]",MIC K. pneumoniae GN_102 PmxR [7] [µg/mL],CC50 at 24 h (in vitro) [µM],also measured
"CCCCCCC[C@@H](O)CC(=O)NCC(=O)N[C@H]1CCNC(=O)[C@H](CC(C)C)NC(=O)[C@H](CCN)NC(=O)[C@H](CCN)NC(=O)[C@H](Cc2ccccc2)NC(=O)[C@@H](CC(C)C)NC(=O)[C@H](CCN)NC1=O [compound 6431, 3(R)OH-nC9CO-Gly-cyc[L-Dab-L-Dab-D-Leu-L-Phe-L-Dab-L-Dab-L-Leu]] ({Decanoyl(3R-OH)}-G[Dab][Dab][dL]F[Dab][Dab]L; lactam 2-C)",>32,8,4,32,4,8,32,8,8,16,8,2,> 300,–
"CCCCCCC[C@@H](O)CC(=O)N[C@H](CC(N)=O)C(=O)N[C@H]1CCNC(=O)[C@H](CC(C)C)NC(=O)[C@H](CCN)NC(=O)[C@H](CCN)NC(=O)[C@H](Cc2ccccc2)NC(=O)[C@@H](CC(C)C)NC(=O)[C@H](CCN)NC1=O [compound 6432, 3(R)OH-nC9CO-D-Asn-cyc[L-Dab-L-Dab-D-Leu-L-Phe-L-Dab-L-Dab-L-Leu]] ({Decanoyl(3R-OH)}-[dN][Dab][Dab][dL]F[Dab][Dab]L; lactam 2-C)",>32,16,8,32,4,16,>32,16,16,16,4,4,> 300,–
"CCCCCCC[C@@H](O)CC(=O)N[C@H](CCCN)C(=O)N[C@H]1CCNC(=O)[C@H](CC(C)C)NC(=O)[C@H](CCN)NC(=O)[C@H](CCN)NC(=O)[C@H](CC(C)C)NC(=O)[C@@H](Cc2ccccc2)NC(=O)[C@H](CCN)NC1=O [compound 6443, 3(R)OH-nC9CO-D-Orn-cyc[L-Dab-L-Dab-D-Phe-L-Leu-L-Dab-L-Dab-L-Leu]] ({Decanoyl(3R-OH)}-[dOrn][Dab][Dab][dF]L[Dab][Dab]L; lactam 2-C)",–,–,2,–,4,–,16,–,–,–,–,4,> 300,"MIC, S. aureus ATCC 25923, MSSA [1]: 32 µg/mL; MIC, K. pneumoniae ATCC 13883 (K. pneumoniae ATCC 13883): 8 µg/mL; MIC, A. baumannii ATCC 19606 (A. baumannii ATCC 19606): 16 µg/mL; MIC, P. aeruginosa ATCC 27853 (P. aeruginosa ATCC 27853): 2 µg/mL; MIC, K. pneumoniae ATCC 700603, MDR [4]: 8 µg/mL; MIC, K. pneumoniae ATCC BAA-2146, NDM-1 pos [5]: 8 µg/mL; MIC, E. coli ATCC 25922 (E. coli ATCC 25922): 8 µg/mL; MIC P. aeruginosa GN_043, PmxR ([6]; Table 6, polymyxin-resistant): 2 µg/mL"
"CCCCCOc1ccc(C(=O)N[C@H](CCN)C(=O)N[C@H]2CCNC(=O)[C@H](CC(C)C)NC(=O)[C@H](CCN)NC(=O)[C@H](CCN)NC(=O)[C@H](Cc3ccccc3)NC(=O)[C@@H](CC(C)C)NC(=O)[C@H](CCN)NC2=O)cc1 [compound 6520, 4-(pentyloxy)benzoic acid-D-Dab-cyc[L-Dab-L-Dab-D-Leu-L-Phe-L-Dab-L-Dab-L-Leu]] (X4-[dDab][Dab][Dab][dL]F[Dab][Dab]L; lactam 2-C)",32,32,4,>32,>32,4,32,8,8,2,4,32,> 300,–
"CC(C)C[C@@H]1NC(=O)[C@H](CCN)NC(=O)[C@H](CCN)NC(=O)[C@H](CC(C)C)NC(=O)[C@@H](Cc2ccccc2)NC(=O)[C@H](CCN)NC(=O)[C@@H](NC(=O)[C@@H](CCN)NC(=O)c2ccc(-c3ccccc3)cc2)CCNC1=O [compound 6526, Ph-4-PhCO-D-Dab-cyc[L-Dab-L-Dab-D-Phe-L-Leu-L-Dab-L-Dab-L-Leu]] ({Benzoyl(4-Ph)}-[dDab][Dab][Dab][dF]L[Dab][Dab]L; lactam 2-C)",>32,8,4,>32,>32,2,>32,8,8,8,–,32,> 300,"MIC P. aeruginosa GN_043, PmxR [6]: 1 µg/mL"
"CCCCCCC[C@@H](O)CC(=O)N[C@H](CCN)C(=O)N[C@H]1CCNC(=O)[C@H](CC(C)C)NC(=O)[C@H](CCN)NC(=O)[C@H](CCN)NC(=O)[C@H](CC(C)C)NC(=O)[C@@H](Cc2ccccc2)NC(=O)[C@H](CCNC(=O)[C@@H](N)CCCNC(=N)N)NC1=O [compound 6655, 3(R)OH-nC9CO-D-Dab-cyc[L-Dab-L-Dab(L-Arg)-D-Phe-L-Leu-L-Dab-L-Dab-L-Leu]] ({Decanoyl(3R-OH)}-[dDab][Dab][Dab](Arg)[dF]L[Dab][Dab]L; lactam 2-C)",–,–,–,–,–,–,–,–,–,–,–,–,> 300,"MIC, S. Aureus ATCC 25923, MSSA [1]: 16 µg/mL; MIC, K. pneumoniae ATCC 13883 (K. pneumoniae ATCC 13883): 32 µg/mL; MIC, P. aeruginosa PA9704, PmxR [2]: 4 µg/mL; MIC, A. baumannii ATCC 19606 (A. baumannii ATCC 19606): 32 µg/mL; MIC, K. pneumoniae Cl 138-16347-20362, PmxR [3]: >32 µg/mL; MIC, P. aeruginosa ATCC 27853 (P. aeruginosa ATCC 27853): 4 µg/mL; MIC, A. baumannii Cl Ptyela 10073 4512:2, PmxR (A. baumannii GN_093 PmxR): >32 µg/mL; MIC, K. pneumoniae ATCC 700603, MDR [4]: 8 µg/mL; MIC, K. pneumoniae ATCC BAA-2146, NDM-1 pos [5]: 16 µg/mL; MIC, E. coli ATCC 25922 (E. coli ATCC 25922): 8 µg/mL; MIC, P. aeruginosa FADDI-PA070, PmxR ([6]; Table 5, polymyxin-resistant): 4 µg/mL; MIC, K. pneumoniae Cl Koprana 10065 0661:1, PmxR [7]: 16 µg/mL"
"CCCCCCC[C@@H](O)CC(=O)N[C@H](CCN)C(=O)N[C@H]1CCNC(=O)[C@H](Cc2c[nH]c3ccccc23)NC(=O)[C@H](CCN)NC(=O)[C@H](CCN)NC(=O)[C@H](CC2CC2)NC(=O)[C@@H](Cc2ccccc2)NC(=O)[C@H](CCN)NC1=O [compound 8099, 3(R)OH-nC9CO-D-Dab-cyc[L-Dab-L-Dab-D-Phe-L-Ala(cycloprop)-L-Dab-L-Dab-L-Trp]] ({Decanoyl(3R-OH)}-[dDab][Dab][Dab][dF][Ala(cPr)][Dab][Dab]W; lactam 2-C)",16,8,>32,8,4,2,16,8,4,8,–,4,73,"MIC P. aeruginosa GN_043, PmxR ([6]; polymyxin-resistant): 2 µg/mL"
"CCCCCCC[C@@H](O)CC(=O)N[C@H](CCN)C(=O)N[C@H]1CCNC(=O)[C@H](Cc2c[nH]c3ccccc23)NC(=O)[C@H](CCN)NC(=O)[C@H](CCN)NC(=O)[C@H](CC(C)C)NC(=O)[C@@H](Cc2ccc(C#N)cc2)NC(=O)[C@H](CCN)NC1=O [compound 8105, 3(R)OH-nC9CO-D-Dab-cyc[L-Dab-L-Dab-L-Dab-D-Phe(4-CN)-L-Leu-L-Dab-L-Dab-L-Trp]] ({Decanoyl(3R-OH)}-[dDab][Dab][Dab][dPhe(4-CN)]L[Dab][Dab]W; lactam 2-C)",4,8,2,8,8,2,16,8,4,4,–,4,107,"MIC P. aeruginosa GN_043, PmxR ([6]; polymyxin-resistant): 2 µg/mL"
